≈ marks a conversion by molar mass, not a printed value.

Tested on in the first data set: not listed separately
The data set can be described thus: Aqueous solubility of the compound at pH 7.4. Format: physicochemical. The settings on record: buffer.
On to `CN(Cc1nnc(-c2ccco2)o1)Cc1c(F)cccc1Cl.O=C(O)/C=C\C(=O)O`, for which the solubility (thermodynamic) turned out to be 717 µg/mL.

Tested on in a further data set: not listed separately
In words: Aqueous solubility of the compound at pH 6. Format: physicochemical. The settings on record: buffer.
Consider `CN(Cc1nnc(-c2ccco2)o1)Cc1c(F)cccc1Cl.O=C(O)/C=C\C(=O)O`, for which the concentration in solution (solubility) came to 687 µg/mL.

Tested on in a further data set: not listed separately
In words: Metabolic stability in rat liver microsomes at 2 uM after 30 mins by LC-MS method. Format: ADME, microsome. The settings on record: 0.5 h. In general terms: Liver microsomes are vesicles of endoplasmic reticulum, rich in cytochrome P450 enzymes.
As to `c1ccc(-c2nnc(CN3CCCc4ccccc43)o2)cc1`, the Stability entry is given as “Stable”.
The same measure, in the same setting: with `c1csc(-c2nnc(COc3ccc4c(c3)OCO4)o2)c1` the entry was “Stable”; with `c1csc(-c2nnc(Cc3cccc4ccccc34)o2)c1`, “Stable”.
Take `Fc1cccc(Cl)c1CNCc1nnc(-c2ccco2)o1`: the Stability entry is listed as “Stable”.
With `c1csc(-c2nnc(CN3CCc4ccccc43)o2)c1`, the Stability result is on record as “Stable”.
For the compound `CN(CCc1c(F)cccc1Cl)c1nnc(-c2ccco2)o1`, the Stability entry was “Stable”.
Consider `c1ccc(-c2nnc(CN3Cc4ccccc4C3)o2)cc1`, for which the Stability result was “Stable”.
Regarding `c1coc(-c2nnc(Cc3cccc4ccccc34)o2)c1`, the Stability entry is “Stable”.
As for `CN(Cc1nnc(-c2ccco2)s1)Cc1c(F)cccc1Cl`, the Stability result is on record as “Stable”.
Still for that read-out and setting: under `c1ccc(C2CCCN2Cc2nnc(-c3cccs3)o2)cc1` (stereo unspecified) stands “Stable”.
`c1coc(-c2nnc(SCc3cccc4ccccc34)o2)c1`: the Stability entry was “Stable”.
In the case of `CN(Cc1nnc(-c2ccco2)o1)C(=O)c1c(F)cccc1Cl`, the Stability entry is given as “Stable”.
Consider `c1csc(-c2nnc(CN3Cc4ccccc4C3)o2)c1`, for which the Stability entry is “Stable”.
Still for that read-out and setting: with `c1ccc(-c2nnc(CN3CCOc4ccccc43)o2)cc1` the entry was “Stable”; with `c1csc(-c2nnc(Cc3ccc4ccccc4c3)o2)c1`, “Stable”; with `CN(Cc1ccc(C(F)(F)F)cc1)Cc1nnc(-c2ccccc2)o1`, “Stable”.
On the same count and under the same terms, with `Fc1ccc(-c2nnc(CN3CCCc4ccccc43)o2)cc1` the entry was “Stable”.
For the compound `FC(F)(F)c1ccc(-c2nnc(CN3CCc4ccccc4C3)o2)cc1`, the Stability entry is reported as “Stable”.
For the compound `Fc1cccc(Cl)c1COCc1nnc(-c2ccco2)o1`, the Stability entry was “Stable”.
With `CN(Cc1ccccc1)Cc1nnc(-c2cccs2)o1`, the Stability result was “Stable”.
On the same count and under the same terms, with `c1ccc(-c2nnc(CN3CCc4ccccc4C3)o2)cc1` the entry was “Stable”.
Turning to `c1ccc(-c2nnc(CN3CCCC3c3ccccc3)o2)cc1` (stereo unspecified), the Stability result was “Stable”.
Consider `Fc1ccc(-c2nnc(CN3CCOc4ccccc43)o2)cc1`, for which the Stability result is given as “Stable”.
Consider `CN(Cc1nnc(-c2ccco2)o1)Cc1ccccc1Cl`, for which the Stability entry is “Stable”.
Take `c1csc(-c2nnc(Cc3cccc4c3OCCO4)o2)c1`: the Stability entry is reported as “Stable”.
The same measure, in the same setting: with `CC1CCc2ccccc2N1Cc1nc(-c2ccsc2)no1` (stereo unspecified) the entry was “Stable”; with `c1csc(-c2nnc(CN3CCOc4ccccc43)o2)c1`, “Stable”.
The same measure, in the same setting: under `CN(Cc1ccc(C(F)(F)F)cc1)Cc1nnc(-c2cccs2)o1` stands “Stable”.
As to `CN(Cc1nnc(-c2ccccc2)o1)Cc1c(F)cccc1Cl`, the Stability entry is “Stable”.
Take `FC(F)(F)c1ccc(-c2nnc(CN3CCCc4ccccc43)o2)cc1`: the Stability result is listed as “Stable”.
Consider `Fc1ccc(-c2nnc(CN3CCc4ccccc4C3)o2)cc1`, for which the Stability entry is listed as “Stable”.
With `c1csc(-c2nnc(CN3CCc4ccccc4C3)o2)c1`, the Stability result is reported as “Stable”.
For the compound `FC(F)(F)c1ccc(-c2nnc(CN3CCOc4ccccc43)o2)cc1`, the Stability entry is reported as “Stable”.
As to `c1ccc(-c2nnc(CN3CCc4ccccc43)o2)cc1`, the Stability result is “Stable”.
As to `CN(Cc1ccc(F)cc1)Cc1nnc(-c2ccccc2)o1`, the Stability entry is “Stable”.
With `CN(Cc1nnc(-c2cccs2)o1)Cc1c(F)cccc1Cl`, the Stability result is recorded as “Stable”.
Regarding `CN(Cc1ccccc1)Cc1nnc(-c2ccco2)o1`, the Stability result is “Stable”.
As to `CN(Cc1nnc(-c2ccco2)o1)CC1CCCCC1`, the Stability result is “Stable”.
As for `c1ccc(Cc2nnc(-c3cccs3)o2)cc1`, the Stability result is listed as “Stable”.
Turning to `CN(Cc1nnc(-c2ccco2)o1)Cc1c(F)cccc1Cl`, the Stability result is on record as “Stable”.
The same measure, in the same setting: under `c1csc(-c2nnc(CN3CCCc4ccccc43)o2)c1` stands “Stable”.

A further data set relates to Mycobacterium tuberculosis. In words: Antitubercular activity against Mycobacterium tuberculosis H37Rv expressing DsRed using 7H9-Ty-10BT medium after 6 days by 2-fold serial dilution method. Format: functional. The settings on record: 144 h.
`c1csc(-c2nnc(Cc3cccc4ccccc34)o2)c1` returned an MIC of 0.4 µM (≈ 0.117 µg/mL).
As to `CC1CCc2ccccc2N1Cc1nc(-c2ccsc2)no1` (stereo unspecified), inhibition of growth (MIC) required 2.2 µM (≈ 0.685 µg/mL).
On the same count and under the same terms, under `CN(Cc1nnc(-c2ccco2)o1)Cc1c(F)cccc1Cl` stands 0.8 µM (≈ 0.257 µg/mL).

For orientation: thermodynamic solubility means the concentration in solution at equilibrium with solid. As usually defined, the solubility is the dissolved amount per volume that the medium holds. As a reminder, the MIC is the least concentration at which growth counts as inhibited. High values mean weaker potency, low ones greater potency.
